Experiments:
PTP1B = target: T1, PTP1B (Homo sapiens, UniProt P18031); experiment: PTP1B enzymatic inhibition assay (pNPP substrate); assay type: biochemical; details: for % Inhibition (200 µM): Table S1, 200 µM compound; for inhibition at 200 µM: 200 µM compound, pNPP 50 mM, 30 min, 37 °C
T1 construct: encodes for PTP1B (residues 1–321); inferred from the pET28A vector, NdeI/BamHI cloning and Ni-agarose purification) (N); made in house; host or cells: E. coli BLR
T1 sequence (P18031 1-321): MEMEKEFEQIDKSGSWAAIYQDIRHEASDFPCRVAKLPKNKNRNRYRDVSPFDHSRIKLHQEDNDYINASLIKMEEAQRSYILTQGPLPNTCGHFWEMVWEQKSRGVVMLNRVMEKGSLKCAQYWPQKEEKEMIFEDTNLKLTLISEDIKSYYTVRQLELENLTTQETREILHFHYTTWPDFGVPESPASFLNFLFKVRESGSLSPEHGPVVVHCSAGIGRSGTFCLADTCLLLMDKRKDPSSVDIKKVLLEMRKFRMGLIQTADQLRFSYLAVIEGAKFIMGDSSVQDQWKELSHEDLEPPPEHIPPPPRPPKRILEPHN
Method: The PTP1B activity was measured based on the Goldstein method. The assay was performed with a final reaction volume of 500 µL in HEPES buffer (50 mM HEPES, 1mM DTT, 2 mM EDTA and 150 mM NaCl, pH 7.0), DMSO (10%) and p-nitrophenol phosphate (pNPP) as substrate (50 mM), the reaction was started with the PTP1B (1.5 µg/mL). After 30 min of incubation at 37 °C, the reaction was stopped by the addition of 500 µL of NaOH 5N reading the absorbance at 405 nm. The number of hydrolyzed moles of pNPP was determined using the molar extinction coefficient of the product pNP (18,500 M^−1 cm^−1).
Inhibition assays were performed under the above described conditions, adding to the reaction each one of the molecules at a final concentration of 200 µM. The concentration that inhibits 50% (IC50) of the PTP1B activity was determined through curves at different concentration of each compound, adjusting the data to the equation reported elsewhere. The inhibition type and constant were obtained by the measurement of the initial velocities of hydrolysis varying the substrate concentration in a range of 2–30 µM, in absence or presence of fixed concentrations of each inhibitor. For compound 1 the concentrations used were 3, 6, 10 and 20 µM; in the case of compound 2 were 2, 4, 6, 8, and 10 µM; and for compound 3 were 20, 50, 70 and 90 µM. The experimental data were analyzed through the Lineweaver-Burk plot using the software Sigma Plot V12.3 (Systat Software, Inc., San Jose, CA, USA).

Row | Compound | % Inhibition (200 µM) (PTP1B) [%] | inhibition at 200 µM (PTP1B) [%] | melting point [°C]
1 | O=C(CSc1nc2cc(Oc3cccc4ccccc34)c(Cl)cc2[nH]1)Nc1ncc([N+](=O)[O-])s1 [2-({6-chloro-5-[(naphthalen-1-yl)oxy]-1H-benzimidazol-2-yl}sulfanyl)-N-(5-nitro-1,3-thiazol-2-yl)acetamide] | 63 | – | –
2 | C[S+]([O-])c1nc2cc(Cl)c(Oc3cccc4ccccc34)cc2[nH]1 (stereo not shown) [Compound 10] | – | 65 | –
3 | CN(C)S(=O)(=O)Oc1ccc(-c2noc(-c3ccc(Oc4cc(Cl)cc(Cl)c4)o3)n2)cc1 [Compound 5, 4-{5-[5-(3,5-dichlorophenoxy)-2-furyl]-1,2,4-oxadiazol-3-yl}phenyl-N,N-dimethylsulfamate] | – | 85 | –
4 | CCCc1cc(=O)oc2cc(OC(C)C(=O)NNS(=O)(=O)c3cccc(C(F)(F)F)c3)ccc12 (stereo not shown) [Compound 6, N′1-{2-[(2-oxo-4-propyl-2H-chromen-7-yl)oxy]propanoyl}-3-(trifluoromethyl)benzene-1-sulfonohydrazide] | – | 84 | –
5 | COC(=O)c1c(Cl)ccc2nc(Cc3ccc([N+](=O)[O-])cc3)sc12 [methyl 6-chloro-2-[(4-nitrophenyl)methyl]-1,3-benzothiazole-7-carboxylate] | 56 | – | –
6 | O=C(O)c1csc(-c2ccc(C(F)(F)F)cc2)n1 [2-[4-(trifluoromethyl)phenyl]-1,3-thiazole-4-carboxylic acid] | 34 | – | –
7 | COc1cc2nc(SCC(=O)Nc3ccc(F)c(Cl)c3)n(-c3ccccc3)c(=O)c2cc1OC [Compound 7, N-(3-chloro-4-fluorophenyl)-2-[(6,7-dimethoxy-4-oxo-3-phenyl-3,4-dihydro-2-quinazolinyl)sulfanyl]acetamide] | – | 80 | –
8 | CC(=O)Nc1nc2cc(Oc3cccc(Cl)c3Cl)c(Cl)cc2n1C [Compound 9, N-[6-Chloro-5-(2,3-dichlorophenoxy)-1-methyl-1H-benzimidazol-2-yl]acetamide] | – | 70 | 237.5 to 238.9
9 | CSc1nc2cc(C(=O)O)ccc2n1C [1-methyl-2-(methylsulfanyl)-1H-benzimidazole-5-carboxylic acid] | 33 | – | –

Reference: publication PMC6150025, “Novel Mixed-Type Inhibitors of Protein Tyrosine Phosphatase 1B. Kinetic and Computational Studies” (Molecules : A Journal of Synthetic Chemistry and Natural …, 2017)
